# Literature values as cited in patent US11576929B2, “Composition for inflammatory gastrointestinal disorders” (SUMITOMO SEIKA CHEMICALS CO., LTD., priority 2018, dated 2023).
# Tested on: colitis in rats
# Conditions: direct inhalation into rats
compound,measurement,value
"[C-]#[O+] [CO (gas), carbon monoxide]",colitis,inhibited colitis
